Measurements as given in ChEMBL document CHEMBL1201862, “PubChem BioAssay data set” (2004).
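Interpolation was linear, between the two tested concentrations surrounding the appropriate level; five concentrations were tested over 48 hours in 96-well plates. GI50 = concentration required for 50% inhibition of growth.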 Active and inactive are the calls of the source. No stated cut-off is given here; in the data, active = GI50 up to about 1.1 µM and inactive = higher.

Legend:
Experiment in all cases: NCI anticancer screen, dose series, 48 h
SN12C = system: SN12C
RXF 393 = system: RXF 393
HL-60 = system: HL-60
T47D = system: T47D
DU-145 = system: DU-145
K562 = system: K562
UACC-257 = system: UACC-257
OVCAR-4 = system: OVCAR-4
SK-MEL-5 = system: SK-MEL-5
HOP-62 = system: HOP-62
U-251 = system: U-251
MDA-MB-231 = system: MDA-MB-231
SF-539 = system: SF-539
COLO 205 = system: COLO 205
KM12 = system: KM12
SNB-19 = system: SNB-19
SK-MEL-2 = system: SK-MEL-2
HCT-116 = system: HCT-116
SK-OV-3 = system: SK-OV-3

Measured: GI50

CC(=O)Nc1ccccc1C=C1c2ccccc2-c2ccccc21
inactive: SN12C 19.1 µM | RXF 393 20.8 µM | HL-60 > 100 µM | T47D 30.4 µM | DU-145 33.2 µM | K562 51.9 µM | UACC-257 56.8 µM | OVCAR-4 27.9 µM | SK-MEL-5 57.3 µM | HOP-62 19.5 µM | U-251 23.2 µM | MDA-MB-231 17.7 µM | SF-539 13.2 µM | COLO 205 78.2 µM | KM12 > 100 µM | SNB-19 17.8 µM | SK-MEL-2 34 µM | HCT-116 29.7 µM

CCOC(=O)C1C(=O)CC(C)(O)C(C(=O)OCC)C1c1ccc(O)c(OC)c1 (stereo not drawn)
inactive: SN12C > 100 µM | RXF 393 > 100 µM | HL-60 > 100 µM | T47D > 100 µM | DU-145 > 100 µM | K562 > 100 µM | UACC-257 > 100 µM | OVCAR-4 > 100 µM | SK-MEL-5 > 100 µM | HOP-62 > 100 µM | U-251 > 100 µM | MDA-MB-231 > 100 µM | COLO 205 > 100 µM | KM12 > 100 µM | SNB-19 > 100 µM | SK-MEL-2 > 100 µM | HCT-116 > 100 µM

CN(C)c1ccc2oc(=O)c3ccccc3c2c1
inactive: SN12C > 100 µM | RXF 393 31.5 µM | HL-60 > 100 µM | T47D > 100 µM | DU-145 > 100 µM | K562 > 100 µM | UACC-257 > 100 µM | OVCAR-4 > 100 µM | SK-MEL-5 86.5 µM | HOP-62 21 µM | U-251 25.3 µM | MDA-MB-231 17.1 µM | SF-539 33.1 µM | COLO 205 > 100 µM | SNB-19 23.1 µM | SK-MEL-2 33.7 µM | HCT-116 40.9 µM

O=[N+]([O-])c1ccc(/C=N/CC2CCCN3CCCCC23)cc1 (stereo not drawn)
inactive: SN12C > 100 µM | RXF 393 46 µM | HL-60 26.7 µM | T47D > 100 µM | DU-145 > 100 µM | K562 19.5 µM | UACC-257 > 100 µM | OVCAR-4 > 100 µM | SK-MEL-5 > 100 µM | SK-OV-3 > 100 µM | HOP-62 > 100 µM | U-251 40.6 µM | MDA-MB-231 > 100 µM | COLO 205 50.9 µM | KM12 33.2 µM | SNB-19 > 100 µM | SK-MEL-2 > 100 µM | HCT-116 58.6 µM

N/C(=N\n1c(=S)[nH]c2ccccc2c1=O)Nn1c(=S)[nH]c2ccccc2c1=O
inactive: RXF 393 35.3 µM | T47D 23.4 µM | DU-145 > 100 µM | K562 26.6 µM | UACC-257 > 100 µM | OVCAR-4 49.9 µM | SK-MEL-5 44.4 µM | SK-OV-3 > 100 µM | HOP-62 36.4 µM | U-251 27.9 µM | MDA-MB-231 53.3 µM | SF-539 18.9 µM | COLO 205 28.8 µM | KM12 96.8 µM | SNB-19 88.3 µM | SK-MEL-2 46.6 µM | HCT-116 16.8 µM

O=C1NC(=S)N/C1=C\c1ccc(Sc2ccccc2C(=O)O)s1
inactive: SN12C > 100 µM | RXF 393 > 100 µM | HL-60 44.8 µM | T47D > 100 µM | DU-145 > 100 µM | K562 93.5 µM | UACC-257 > 100 µM | OVCAR-4 > 100 µM | SK-MEL-5 > 100 µM | HOP-62 > 100 µM | U-251 > 100 µM | MDA-MB-231 > 100 µM | COLO 205 > 100 µM | KM12 > 100 µM | SNB-19 > 100 µM | SK-MEL-2 > 100 µM | HCT-116 > 100 µM

COc1ccc(/C=N/n2c(Cc3ccc(Cl)cc3)n[nH]c2=O)cc1
inactive: SN12C 59.7 µM | RXF 393 16.8 µM | T47D 54.1 µM | DU-145 30.3 µM | K562 > 100 µM | UACC-257 > 100 µM | OVCAR-4 > 100 µM | SK-OV-3 36 µM | HOP-62 15.2 µM | U-251 14.3 µM | MDA-MB-231 8.93 µM | SF-539 22.1 µM | COLO 205 32 µM | KM12 > 100 µM | SNB-19 15.7 µM | SK-MEL-2 21.6 µM | HCT-116 24.9 µM

O=C(c1cccc2cc(O)ccc12)c1cn(CCN2CCOCC2)c2ccccc12
inactive: SN12C 31.8 µM | RXF 393 21.8 µM | HL-60 28.2 µM | T47D 38.3 µM | DU-145 30.1 µM | K562 60.1 µM | UACC-257 21.7 µM | SK-MEL-5 40 µM | HOP-62 22 µM | MDA-MB-231 19.5 µM | SF-539 > 100 µM | COLO 205 45.7 µM | SNB-19 55.7 µM | SK-MEL-2 11 µM | HCT-116 20 µM

CCN(C(=O)N[C@H](C(=O)N[C@@H](CSC)C(=O)N[C@@H](C)C(=O)OC)C(C)C)c1ccccc1
inactive: SN12C 17.9 µM | RXF 393 17.7 µM | T47D 26.4 µM | DU-145 17.4 µM | K562 13.1 µM | UACC-257 12.4 µM | OVCAR-4 20 µM | SK-MEL-5 16.7 µM | SK-OV-3 15 µM | HOP-62 19.8 µM | U-251 15.9 µM | MDA-MB-231 15.1 µM | SF-539 19.6 µM | COLO 205 17.9 µM | KM12 15.3 µM | SNB-19 19.3 µM | SK-MEL-2 20.3 µM | HCT-116 16.7 µM

O=c1c2c3c(sc2nc2n1N=CN(c1ccccc1)C2)CCCC3
inactive: SN12C > 100 µM | RXF 393 > 100 µM | T47D > 100 µM | DU-145 > 100 µM | K562 > 100 µM | UACC-257 > 100 µM | OVCAR-4 > 100 µM | SK-MEL-5 > 100 µM | SK-OV-3 > 100 µM | HOP-62 > 100 µM | U-251 > 100 µM | MDA-MB-231 > 100 µM | COLO 205 > 100 µM | KM12 > 100 µM | SNB-19 > 100 µM | SK-MEL-2 > 100 µM | HCT-116 > 100 µM

COc1cc2c(cc1OCCCOc1cc3c(cc1OC)C(=O)N1CCC[C@H]1C(=O)N3)N=C[C@@H]1CCCN1C2=O
inactive: SN12C 15.7 µM | RXF 393 13.3 µM | HL-60 8.34 µM | T47D 7.94 µM | DU-145 36.7 µM | K562 3.77 µM | UACC-257 24.5 µM | OVCAR-4 18.5 µM | SK-MEL-5 12.5 µM | HOP-62 34.2 µM | U-251 4.65 µM | MDA-MB-231 14.9 µM | COLO 205 3.61 µM | KM12 16.4 µM | SNB-19 27.3 µM | SK-MEL-2 12.6 µM | HCT-116 26.4 µM
